Test results reported in PubChem BioAssay (NCI).
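Compound exposure: 48 hours, 5 concentrations, 96-well plates. At the GI50, growth is halved. TGI: concentration producing complete growth inhibition.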

Tests used:
Assay in all cases: NCI tumour cell line growth inhibition, 48 h
A498 renal = tested on: A498 renal
SF-268 CNS = tested on: SF-268 CNS
U251 CNS = tested on: U251 CNS
SK-MEL-28 melanoma = tested on: SK-MEL-28 melanoma
OVCAR-8 ovarian = tested on: OVCAR-8 ovarian
RPMI-8226 leukemia = tested on: RPMI-8226 leukemia
HCT-116 colon = tested on: HCT-116 colon
K-562 leukemia = tested on: K-562 leukemia
SN12C renal = tested on: SN12C renal
HCC-2998 colon = tested on: HCC-2998 colon

Row | Compound | TGI (A498 renal) | TGI (SF-268 CNS) | TGI (U251 CNS) | TGI (SK-MEL-28 melanoma) | TGI (OVCAR-8 ovarian) | TGI (RPMI-8226 leukemia) | TGI (HCT-116 colon) | TGI (K-562 leukemia) | TGI (SN12C renal) | TGI (HCC-2998 colon) | GI50 (A498 renal) | GI50 (SF-268 CNS) | GI50 (U251 CNS) | GI50 (SK-MEL-28 melanoma) | GI50 (OVCAR-8 ovarian) | GI50 (RPMI-8226 leukemia) | GI50 (HCT-116 colon) | GI50 (K-562 leukemia) | GI50 (SN12C renal) | GI50 (HCC-2998 colon)
1 | [N-]=[N+]=NC1(N=[N+]=[N-])C(=O)NN=C(c2ccccc2)C1=O (stereo not given) | > 100 µM | 28.4 µM | > 100 µM | 31.9 µM | > 100 µM | > 100 µM | 38.7 µM | > 100 µM | > 100 µM | > 100 µM |  |  |  |  |  |  |  |  |  | 
2 | CN1CCN(C(=O)c2ccc(NC(=O)Nc3ccc(N(C)c4ccnc(Nc5ccc(CS(C)(=O)=O)cc5)n4)cc3)cc2)CC1 | > 25 µM | > 25 µM | > 25 µM | > 25 µM | > 24 µM | > 25 µM | > 25 µM | > 25 µM | > 25 µM | > 25 µM | > 25 µM | 9.95 µM | 6.26 µM | > 25 µM | 7.22 µM | 8.85 µM | 10.1 µM | 12.6 µM | 9.42 µM | > 25 µM
3 | CCCCCCN(CCCCCC)C(=N)c1ccnc2ccccc12 | 16.6 µM | 26.5 µM | 10.9 µM | 8.6 µM | 24.1 µM | 11.6 µM | 14.1 µM | 8.35 µM | 21.6 µM | 3.54 µM | 3.07 µM | 13 µM | 3.31 µM | 3.13 µM | 10.4 µM | 2.93 µM | 1.94 µM | 2.37 µM | 7 µM | 1.78 µM
4 | C[C@H]1CCC/C=C/[C@@H]2C[C@H](O)C[C@H]2[C@H](O)[C@H](S(=O)c2ccc(O)cc2)CC(=O)O1 (stereo not given in full) | 0.0716 µM | > 100 µM | > 77.4 µM | > 100 µM | 0.238 µM | 2.52 µM | 0.0633 µM | > 100 µM | 0.489 µM | 0.0951 µM | 0.0307 µM |  | 0.0403 µM | 0.0316 µM | < 0.0167 µM | 0.0922 µM | 0.0256 µM | 0.0994 µM | 0.0497 µM | 0.0278 µM
5 | O=c1oc2ccc(Cl)cc2c(=O)n1-c1ccc(Cl)cc1F | 0.498 µM | 7.07 µM | > 31.6 µM | 2.29 µM | > 21.7 µM | 1.09 µM | 1.7 µM | > 100 µM | 3.78 µM | 8.09 µM | 0.161 µM | 0.419 µM | 0.566 µM | 0.379 µM | 0.721 µM | 0.28 µM | 0.442 µM | 0.422 µM | 0.431 µM | 2.36 µM
6 | CC(=O)CC(=O)N(CCN(C(=O)CC(C)=O)c1ccccc1)c1ccccc1 | > 100 µM | > 100 µM | > 100 µM | > 100 µM | > 100 µM | > 100 µM | > 100 µM | > 100 µM | > 100 µM | > 100 µM |  |  |  |  |  |  |  |  |  | 
7 | CCOC(=O)[C@H](CSSc1ncnc2cc[nH]c12)NC(=O)[C@@H](C)c1ccc2cc(OC)ccc2c1 | > 50.9 µM | > 100 µM | > 100 µM | > 100 µM | > 100 µM | > 100 µM | > 100 µM | > 100 µM | > 100 µM | > 100 µM | 6.96 µM | 2.74 µM | 4.77 µM | 13.8 µM | 1.82 µM | 0.282 µM | 0.474 µM | 0.156 µM | 3.98 µM | 1.29 µM
8 | O=C1c2ccccc2C(=O)N1/N=C\c1ccc(Br)cc1 | > 100 µM | > 100 µM | > 100 µM | > 100 µM | > 100 µM | > 10 µM | > 100 µM | > 100 µM | > 100 µM | > 100 µM | > 100 µM | > 100 µM |  | > 100 µM | > 100 µM |  | > 100 µM | > 100 µM | > 100 µM | > 100 µM
9 | C/C(=C\c1ccn(-c2ccc(N)c(C(F)(F)F)c2)n1)[C@@H]1C[C@@H]2O[C@]2(C)CCC[C@H](C)[C@H](O)[C@@H](C)C(=O)C(C)(C)[C@@H](O)CC(=O)O1 | 1.31 µM | > 32.5 µM | 8.55 µM | > 32.5 µM | > 28.1 µM | 10.5 µM | > 29.3 µM | > 32.5 µM | > 32.5 µM | > 20.4 µM | 0.0175 µM | 0.0349 µM | < 0.012 µM | 3.87 µM | 0.0177 µM | < 0.0104 µM | 0.00733 µM | 0.0109 µM | 0.0237 µM | 0.0317 µM
10 | CCOC(=O)C12CCCC1(O)N(NC(=O)c1cccc(Cl)c1)C(C)=C2C(=O)OC (stereo not given) | > 100 µM | > 100 µM | > 100 µM | > 100 µM | > 100 µM | > 100 µM | > 100 µM | > 100 µM | > 100 µM | > 100 µM |  |  |  |  |  |  |  |  |  | 
11 | CCCCCCCCCCCCCOC(=O)c1c(C)[nH]c(/C=C2\N=C(c3ccc[nH]3)C=C2OC)c1C | 10.8 µM | > 59 µM | 17.7 µM | > 52.6 µM |  | > 100 µM |  | > 100 µM | > 100 µM | > 44.4 µM | 0.481 µM | 0.109 µM | 0.0764 µM | 0.994 µM | 0.0454 µM | 0.0498 µM | < 0.0122 µM | 0.0392 µM | 0.156 µM | 0.0307 µM
